Test systems include A498 renal; IGROV1 ovarian; HCC-2998 colon; HT29 colon; RPMI-8226 leukemia; RXF 393 renal; T-47D breast; OVCAR-4 ovarian; MOLT-4 leukemia; SF-295 CNS; MCF7 breast; UO-31 renal.
What all share (assay): inhibition of tumour cell growth, NCI panel, 48 h

Molecules are shown by their SMILES.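 Values below derive from 48-hour exposures of cells grown in 96-well plates, with endpoints linearly interpolated between the two concentrations bracketing the appropriate inhibition level. At the GI50, growth is halved. TGI marks complete inhibition of growth.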

In the case of `CC(=O)Oc1cccc2c(/C=N/NC(N)=S)ncc(C)c12`, the TGI in the assay on A498 renal was determined as 29.2 µM; with IGROV1 ovarian it was 20.9 µM; with HCC-2998 colon it was 18.9 µM; in the assay on HT29 colon, 21.8 µM; with RPMI-8226 leukemia, 24.5 µM; in the assay on RXF 393 renal it was 23.7 µM. The TGI in the assay on T-47D breast was 31.3 µM; with OVCAR-4 ovarian, 38.6 µM; with MOLT-4 leukemia, greater than 62.8 µM; in the assay with SF-295 CNS, 14.4 µM; in the assay on MCF7 breast, 3.32 µM; with UO-31 renal it was 4.43 µM.
For the compound `NNC(N)Nc1ccccc1` (centres undefined), the TGI with A498 renal, with IGROV1 ovarian, in the assay on HCC-2998 colon, in the assay with HT29 colon, in the assay with RXF 393 renal and in the assay with T-47D breast was greater than 100 µM each time. Moreover, the TGI in the assay on OVCAR-4 ovarian, in the assay with MOLT-4 leukemia, with SF-295 CNS, with MCF7 breast and with UO-31 renal was greater than 100 µM in each case.
For `C=CC(Br)(CBr)CCC(Cl)C(C)C` (centres undefined), the TGI came out at 27 µM in the assay on A498 renal; 8.43 µM in the assay on IGROV1 ovarian; 1.52 µM in the assay on HCC-2998 colon; 3.17 µM in the assay with HT29 colon; 3.31 µM in the assay on RXF 393 renal; 3.29 µM in the assay with OVCAR-4 ovarian. For the same compound, the TGI with MOLT-4 leukemia is 4.31 µM; in the assay with SF-295 CNS it was 3.9 µM; with MCF7 breast, 3.07 µM; in the assay with UO-31 renal, 3.08 µM.
Consider `CCC[CH2][Ge]([CH2]CCC)([CH2]CCC)[O]C(=O)CC(=O)c1ccccc1`, for which the GI50 in the assay on IGROV1 ovarian is 2.2 µM; in the assay with HCC-2998 colon, 1.3 µM; in the assay with HT29 colon, 0.64 µM; with RPMI-8226 leukemia, 0.959 µM; in the assay with RXF 393 renal, 0.728 µM; in the assay with OVCAR-4 ovarian it was 2.49 µM. Also, the GI50 with MOLT-4 leukemia is 0.457 µM; with UO-31 renal it was 1.66 µM. The TGI with IGROV1 ovarian is 13.9 µM; in the assay on HCC-2998 colon, 6.16 µM; in the assay on HT29 colon, 11.1 µM; with RPMI-8226 leukemia, greater than 100 µM; in the assay with RXF 393 renal it was 3.65 µM; with OVCAR-4 ovarian, 21.3 µM. In addition, the TGI with MOLT-4 leukemia stood at 18 µM; with UO-31 renal, 15.9 µM.
Consider `c1ccc(N=C2SC(=NC3CCCCC3)N(C3CCCCC3)C2=Nc2ccccc2)cc1`, for which the TGI with A498 renal, in the assay with IGROV1 ovarian, with HCC-2998 colon, in the assay on HT29 colon, with RPMI-8226 leukemia and in the assay with RXF 393 renal was greater than 100 µM each time. Also, the TGI in the assay on T-47D breast, in the assay on MOLT-4 leukemia, with SF-295 CNS, in the assay with MCF7 breast and in the assay with UO-31 renal was greater than 100 µM throughout.
Take `NCCCNc1nc2ccccc2c2c(=O)c3cc(OC(F)(F)F)ccc3sc12`: the GI50 in the assay with IGROV1 ovarian was 1.46 µM; in the assay with HCC-2998 colon, 1.71 µM; in the assay on UO-31 renal, 1.49 µM. The figures for the TGI in the assay on IGROV1 ovarian, with HCC-2998 colon and in the assay on UO-31 renal were 2.9 µM, 3.25 µM and 2.9 µM, respectively.
As to `Cc1cc(=O)[nH]c(NN2C(Cl)C(=O)C2c2cccc(O)c2)n1` (centres undefined), the TGI with IGROV1 ovarian, in the assay on HCC-2998 colon, in the assay with HT29 colon, with RPMI-8226 leukemia, with RXF 393 renal and in the assay on OVCAR-4 ovarian was greater than 100 µM each time. Besides, the TGI was greater than 100 µM in the assay on MOLT-4 leukemia and 24.7 µM in the assay on UO-31 renal.
In the case of `NC(CCCCP(=O)(O)O)C(=O)O` (centres undefined), the TGI in the assay on IGROV1 ovarian, with HCC-2998 colon, with HT29 colon, with RPMI-8226 leukemia, with RXF 393 renal and in the assay with T-47D breast was greater than 100 µM in each case. Besides, the TGI with OVCAR-4 ovarian, with MOLT-4 leukemia, in the assay on SF-295 CNS and in the assay on UO-31 renal was greater than 100 µM in each case.

The record behind these values is PubChem BioAssay (NCI).
